According to patent publication US5705687A, “Neurotropic drug and method for preparation of same” (priority 1993, dated 1998):
Values joined by “and” are separate entries in the source; they are usually repeats but may differ in a detail not shown here. Equal values may be shown once. Where a name gives a salt, the structure may show the parent alone. Read-outs that look alike come from different tables or passages of the source.

Key:
mice [1] = assay: Soporific action of barbital sodium
central nervous system = assay: Neuropharmacological screening, overall findings; format: in vivo, mice; conditions: examined dosage range
Procedure: (§1) The myorelaxing effect of the new compounds was tested by the method of the "rotating rod"(Dunham N. W., Miga T. S., A note on a simplex apparatus for detecting neurological deficit in rat and mice, J. Am. Pharm. Ass., 1957, vol. 46, No. 3, pp. 208-209), which allows one to record any abnormalities in coordination and balance, as well as ataxia. The mice in the laboratory tests were placed on a horizontal rod, 2 cm in diameter, rotating at a speed of 5 revolutions per minute. The object was to register the number of mice which were able to maintain equilibrium on the rod for two minutes. Any presence of a myorelaxing component was considered to be a side effect of the substance being studied.

[2] = Solubility and hygroscopicity; format: physicochemical
mice [3] = assay: Hemic hypoxia (sodium nitrite), lifespan; format: in vivo; conditions: 400 mg/kg i.p., control
Procedure: (§2) The antihypoxic properties of the new compounds were tested in the models of hypoxic normobaric, hemic and histotoxic hypoxia. The hypoxic (hypercapnic) normobaric hypoxia was induced by placing the mice in hermetically sealed transparent boxes, subdivided into compartments, 80 cm^3 each. The animals were observed until all respiratory movements ceased. The hemic hypoxia was induced by the intraperitoneal administration of sodium nitrite in a dose of 400 mg/kg. The hystotoxic hypoxia was induced by the intraperitoneal administration of sodium nitroprussiate, in a dose of a 20 mg/kg dosage.

mice [4] = assay: Soporific action of hexobarbital
[5] = background statement on the known drug; cited from earlier work
mice [6] = assay: Rotating rod: myorelaxation and movement coordination; format: in vivo, white crossbred mice
Procedure: as §1

[7] = cited from earlier work
[8] = Acute toxicity in mice (Litchfield-Wilcockson); format: in vivo, white crossbred mice; conditions: mouse, in vivo
mice [9] = assay: Orientation reflexes: test of ascent onto an inclined net
mice [10] = assay: Conditioned reaction of passive avoidance (CPRA), amnesia by electric shock; format: in vivo; conditions: 250 to 500 mg/kg; earlier tests
Source text: The effect produced by the new substance on the processes of the central nervous system was examined on the model of one-time training of mice, of conditioned reaction of passive avoidance (CPRA), where the amnesic effect was produced by electric shock. During the tests, a two-section chamber was used to condition a certain reflex to the lit and darkened sections. First, for two minutes, the amount of time was registered, that a mouse spent in the lit section before entering the darkened section. Then, while in the darkened section, the animal would receive a single electric shock through the electrode floor (training). The training was immediately followed by an electric shock (50 Hz, 0.2 see). […] The substance was intraperitoneally administered 40 min. prior to the start of the training, the control group received a physiological solution. […] The anti-amnesic properties of the new compound are represented by an increase in the latent period before and after the training. (Δt)

mice [11] = assay: Histotoxic hypoxia (sodium nitroprussiate), lifespan; format: in vivo; conditions: 250, 500 and 1000 mg/kg (two values for three doses (so in the source))
Procedure: as §2

mice [12] = assay: Spontaneous motor activity (SMA), 40-channel automatic motor meter; conditions: for Average SMA, M ± m: control 524.0 ± 99.2; for Relative change in activity (%): control = 100

CCC1(CC)C(=O)NC(=O)NC1=O [Barbitol sodium, barbital sodium, reference compound]
Lateral position (min), barbiturate alone (mice [1]; 250 mg/kg i.p., control of each experiment): 31.8 ± 1.1 min and 34.5 ± 1.4 min and 38.1 ± 1.3 min

CC(C)(CO)C(=O)C(=O)NCCCC(=O)O [KPA, N-(4-hydroxy-3,3-dimethyl-2-oxo-1-butyryl)γ-aminobutyric acid]
depressing effect on the animals (central nervous system): no depressing effect | solubility in acetone or chloroform ([2]; acetone, chloroform): not in acetone or chloroform | solubility in water and alcohol ([2]; water, alcohol): readily soluble

O=N[O-].[Na+] [Na-nitrite, sodium nitrite, reference compound]
Average lifespan (sec), hypoxia inducer alone (mice [3]): 790.5 ± 21.1 s

CN1C(=O)NC(=O)C(C)(C2=CCCCC2)C1=O (stereo not shown) [hexobarbital, reference compound]
Duration of sleep (min), barbiturate alone (mice [4]; 100 mg/kg i.p., control): 46.3 ± 2.3 min | Lateral position (min), barbiturate alone (mice [4]; 100 mg/kg i.p., control): 2.4 ± 0.15 min

CC(C)(CO)[C@@H](O)C(=O)NCCCC(=O)O [pantogam, calcium salt of the D-homopantothenic acid, reference compound]
therapeutic index [5]: 3.3 | loss of movement coordination (side effect) (mice [6]; 300 mg/kg and higher): loss of movement coordination | time of maximum strength (mice [6]; after injection, rotating rod): 30 min | return of movement coordination and muscle strength (not until) (mice [6]; after the start of the experiment): 1.5 h | increase of soporific effect (mice [1]; 500 mg/kg, barbital sodium, indicated earlier): 20% | undesirable side effects ([7]; known drug, high dose): depression and myorelaxation | penetration of the hematoencephalitic barrier compared to aminalon ([7]; vs aminalon): better penetration | increase of soporific effect (mice [4]; 500 mg/kg, hexobarbital, indicated earlier): 40% | LD50 ([8]; intravenous, read-out: DL50 (the source's name)): 1080 mg/kg | LD50 ([8]; ip, earlier experiments, identical conditions, read-out: DL50 (acute toxicity)): 2250 mg/kg | MTD ([8]; ip, read-out: maximum tolerance level): 1000 mg/kg | ED50 (mice [9]; Mus musculus, ip, read-out: average effective dose (DE50)): 680 mg/kg | time of maximum strength (mice [9]; after administration, orientation reflex): 60 min | effect on orientation reflex (mice [9]; mice): suppressed the orientation reflex | anti-amnesic effect (in words) (mice [10]): moderate a anti-amnesic effect | anti-amnesic effect, share of latent period in animals not exposed to the electric shock (mice [10]): 60-75% | increase in lifespan (mice [11]): 57% and 85% | decrease in number of runs in the motor meter (mice [12]; 500 mg/kg): 30% | Average SMA, M ± m (mice [12]; 500 mg/kg i.p.): 392.0 ± 307 | Relative change in activity (%) (mice [12]; 500 mg/kg i.p.): 74.8% | Average SMA, M ± m (mice [12]; 1000 mg/kg i.p., P < 0.05): 176.0 ± 116 | Relative change in activity (%) (mice [12]; 1000 mg/kg i.p.): 33.6% | decrease in motor activity (mice [12]; 1000 mg/kg, the maximum tolerable dose): 70% | effect on motor activity (in words) (mice [12]; SMA test, mice): depressing effect on motor activity
